# According to patent US20180319865A1, “Identification of Novel Small Molecule Beta2 Integrin Agonists” (Rush University Medical Center, priority 2016, published 2018):
# pEC50: −log10 of the molar value.
# Columns and labels:
# [1] = target: T1, mutant integrin CD11bE320A/CD18 (Homo sapiens, UniProt P11215, E336A); assay: HTS cell adhesion assay, K562 E320A cells on immobilized fibrinogen; assay type: cell-based; details: five point dose-response
# T1 construct: expressed in transfected cells; host or cells: K562 (ATCC)
# Experimental: K562 cells stably expressing CD11c/CD18 (K562 CD11c/CD18) were generated similarly. […] K562 cells stably transfected with mutant integrin CD11bE320A/CD18 (K562 E320A) were generated according to literature protocols. All cell lines were maintained in Iscove's Modified Dulbecco's Medium (IMDM) supplemented with 10% heat-inactivated fetal bovine serum, 50 IU/mL penicillin and streptomycin and 0.5 mg/mL G418.
# (§1) Cell adhesion assays with immobilized ligands were performed using the general protocol previously described and as illustrated in FIG. 1 [33]. Assays with all different K562 cell lines (K562, K562 CD11b/CD18, K562 CD11c/CD18 and K562 E320A) were performed in an identical fashion. Briefly, 384-well microplates (Corning 3700) were coated with 15 μg/mL fibrinogen (Fg) ligand in PBS^++ overnight at 4° C. At the same time, anti-CD18 (IB4) mAb was also coated. Subsequently, the coated wells were washed with 1% nonfat milk in TBS at room temperature for 1 hour. Next, the wells were washed 3 times with TBS, and the coated microplates were used in the HTS assays.
# (§2) K562 CD11b/CD18, K562 CD11bE320A/CD18 and K562 CD11c/CD18 cells were washed with TBS, and cells were transferred to the Fg-coated wells of microplates in the assay buffer (Ca^2+ and Mg^2+ for physiological condition, Mn^2+ as the Positive control). A 1 μL aliquot of the compounds were transferred to each washed well with multichannel pipet from the 384-well plates.
# (§3) The assay plates were incubated at 37° C. in the presence of small-molecule compounds for 30 min. To dislodge the non-adherent cell, the assay plates were gently inverted and kept in inverted position for 20 min at room temperature.
# (§4) The cells were fixed with 37% formaldehyde in a small volume and the plates were kept inverted for 1 h. Upon the fixation, the solutions in the well were discarded. Next, the cells were fluorescently labeled with DAPI (0.5 μM final in TBS with 0.1% Triton X-100) and the quantitated with “Opera High Content Screening System” (Perkin Elmer).
# (§5) Cell-adhesion under positive and negative control conditions was used to define the activity scale; signal corresponding to the number of non-small molecule treated cells adherent in activating buffer condition (in the presence of Mn^2+ ions as agonist, PC) was considered maximum (100% binding) and the signal corresponding to the number of non-small molecule treated cells adherent in basal buffer condition (in the presence of 1 mM each of Ca^2+ and Mg^2+, NC) was considered minimum (0% binding).
# [2] = target: T2, integrin CD11c/CD18 (Homo sapiens, UniProt P20702); assay: HTS cell adhesion assay, K562 CD11c/CD18 cells on immobilized fibrinogen; assay type: cell-based; details: for EC50 CD11c/CD18: Table 3, K562 CD11c/CD18 cells, adhesion to fibrinogen, dose-response
# T2 construct: expressed in transfected cells; host or cells: K562 (ATCC)
# Experimental: K562 cells stably expressing CD11c/CD18 (K562 CD11c/CD18) were generated similarly. Mutant CD11bE320A has been described previously. K562 cells stably transfected with mutant integrin CD11bE320A/CD18 (K562 E320A) were generated according to literature protocols. All cell lines were maintained in Iscove's Modified Dulbecco's Medium (IMDM) supplemented with 10% heat-inactivated fetal bovine serum, 50 IU/mL penicillin and streptomycin and 0.5 mg/mL G418.
# as §1, §2, §3, §4
# as §5, with “binding). […]” for “binding).”
# The compounds were diluted in DMSO by the final concentration 10 μM, 5 μM, 2.5 μM, 1.25 μM and 0.625 μM and stocked as sealed in 384-well plates at −80° C.
# [3] = Table 3, adhesion to fibrinogen
# [4] = Table 4, adhesion to fibrinogen
# T1 sequence (P11215 17-1152 E336A): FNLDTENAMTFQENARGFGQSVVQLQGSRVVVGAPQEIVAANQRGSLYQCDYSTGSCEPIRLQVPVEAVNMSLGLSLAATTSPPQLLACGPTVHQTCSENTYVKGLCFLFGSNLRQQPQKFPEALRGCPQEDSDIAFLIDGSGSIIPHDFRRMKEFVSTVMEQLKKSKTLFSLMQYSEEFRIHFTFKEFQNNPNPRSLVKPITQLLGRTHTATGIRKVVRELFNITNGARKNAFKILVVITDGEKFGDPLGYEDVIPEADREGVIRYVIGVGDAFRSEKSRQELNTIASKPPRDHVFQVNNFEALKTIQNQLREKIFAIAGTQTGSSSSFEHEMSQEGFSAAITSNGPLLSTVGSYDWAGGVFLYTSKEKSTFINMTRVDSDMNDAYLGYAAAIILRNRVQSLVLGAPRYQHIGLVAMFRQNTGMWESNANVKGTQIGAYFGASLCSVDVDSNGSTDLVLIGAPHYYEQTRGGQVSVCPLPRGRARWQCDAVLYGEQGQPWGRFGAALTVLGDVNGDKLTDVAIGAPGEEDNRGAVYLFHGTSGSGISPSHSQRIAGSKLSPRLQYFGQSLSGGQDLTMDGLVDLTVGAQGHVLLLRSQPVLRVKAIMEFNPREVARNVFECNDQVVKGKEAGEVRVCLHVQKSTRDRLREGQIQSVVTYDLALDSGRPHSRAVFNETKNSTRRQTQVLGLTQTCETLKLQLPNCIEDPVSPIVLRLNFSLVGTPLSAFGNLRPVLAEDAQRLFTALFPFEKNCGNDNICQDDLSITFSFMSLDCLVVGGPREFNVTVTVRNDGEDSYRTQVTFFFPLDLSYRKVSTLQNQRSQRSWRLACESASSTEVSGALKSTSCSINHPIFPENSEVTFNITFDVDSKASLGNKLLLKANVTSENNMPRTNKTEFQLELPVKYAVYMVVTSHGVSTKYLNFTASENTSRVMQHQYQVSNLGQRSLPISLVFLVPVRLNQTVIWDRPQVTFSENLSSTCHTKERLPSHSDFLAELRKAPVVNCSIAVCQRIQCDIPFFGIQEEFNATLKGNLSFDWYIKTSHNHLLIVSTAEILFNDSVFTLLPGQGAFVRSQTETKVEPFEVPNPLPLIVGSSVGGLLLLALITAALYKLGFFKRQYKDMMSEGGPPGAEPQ
# T1 sequence (P05107 23-769 partner): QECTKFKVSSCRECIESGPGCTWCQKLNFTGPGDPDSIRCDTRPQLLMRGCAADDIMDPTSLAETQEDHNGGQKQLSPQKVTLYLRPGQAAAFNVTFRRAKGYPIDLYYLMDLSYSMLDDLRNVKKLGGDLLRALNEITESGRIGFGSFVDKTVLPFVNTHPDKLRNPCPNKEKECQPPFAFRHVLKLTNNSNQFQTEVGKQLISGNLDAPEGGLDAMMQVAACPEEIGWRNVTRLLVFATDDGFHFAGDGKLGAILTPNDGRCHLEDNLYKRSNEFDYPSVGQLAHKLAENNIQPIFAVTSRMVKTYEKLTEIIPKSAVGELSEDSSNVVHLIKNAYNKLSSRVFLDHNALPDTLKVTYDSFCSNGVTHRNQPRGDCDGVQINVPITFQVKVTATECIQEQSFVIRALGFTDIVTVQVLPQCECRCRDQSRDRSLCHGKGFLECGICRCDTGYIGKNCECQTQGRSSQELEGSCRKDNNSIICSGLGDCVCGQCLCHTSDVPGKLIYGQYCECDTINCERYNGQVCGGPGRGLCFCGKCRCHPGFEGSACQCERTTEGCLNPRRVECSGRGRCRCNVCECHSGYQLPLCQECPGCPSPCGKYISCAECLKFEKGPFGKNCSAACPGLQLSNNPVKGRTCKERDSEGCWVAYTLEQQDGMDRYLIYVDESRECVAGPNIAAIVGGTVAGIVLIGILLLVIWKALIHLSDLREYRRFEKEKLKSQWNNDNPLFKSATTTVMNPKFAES
# T2 sequence (P20702 with tags, fused parts or gaps): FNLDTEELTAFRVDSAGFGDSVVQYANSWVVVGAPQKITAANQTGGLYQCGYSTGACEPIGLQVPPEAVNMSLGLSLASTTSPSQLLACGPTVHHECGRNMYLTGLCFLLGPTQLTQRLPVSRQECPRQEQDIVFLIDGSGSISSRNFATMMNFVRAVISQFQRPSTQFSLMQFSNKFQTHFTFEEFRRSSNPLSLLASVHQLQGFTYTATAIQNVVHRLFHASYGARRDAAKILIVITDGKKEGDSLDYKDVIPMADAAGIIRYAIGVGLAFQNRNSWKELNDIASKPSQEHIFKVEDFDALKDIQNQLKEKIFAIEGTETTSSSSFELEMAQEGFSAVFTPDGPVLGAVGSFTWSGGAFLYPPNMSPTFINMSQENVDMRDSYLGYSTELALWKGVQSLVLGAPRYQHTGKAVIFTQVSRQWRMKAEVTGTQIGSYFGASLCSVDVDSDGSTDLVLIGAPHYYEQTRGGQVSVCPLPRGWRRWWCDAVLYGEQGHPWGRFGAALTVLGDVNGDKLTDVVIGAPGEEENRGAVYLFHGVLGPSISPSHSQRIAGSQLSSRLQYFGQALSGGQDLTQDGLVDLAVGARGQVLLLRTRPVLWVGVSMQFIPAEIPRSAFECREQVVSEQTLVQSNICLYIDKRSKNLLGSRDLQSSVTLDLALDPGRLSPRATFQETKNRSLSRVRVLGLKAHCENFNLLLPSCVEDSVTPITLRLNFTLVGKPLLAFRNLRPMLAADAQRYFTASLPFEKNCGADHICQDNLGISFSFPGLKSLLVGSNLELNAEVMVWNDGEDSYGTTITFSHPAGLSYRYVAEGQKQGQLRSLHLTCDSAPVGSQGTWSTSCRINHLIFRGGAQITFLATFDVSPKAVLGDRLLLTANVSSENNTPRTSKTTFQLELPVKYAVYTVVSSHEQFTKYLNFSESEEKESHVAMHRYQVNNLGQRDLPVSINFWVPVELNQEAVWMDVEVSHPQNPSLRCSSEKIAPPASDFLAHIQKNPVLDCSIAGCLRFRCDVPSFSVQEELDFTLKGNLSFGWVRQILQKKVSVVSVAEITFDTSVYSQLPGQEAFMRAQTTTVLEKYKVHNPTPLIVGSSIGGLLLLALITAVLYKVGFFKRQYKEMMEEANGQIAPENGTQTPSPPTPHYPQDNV
# T2 sequence (P05107 23-769 partner): as the sequence (P05107 23-769 partner) above
SMILES,"pEC50 [1, 3]",pEC50 [2],EC50 CD11c/CD18 [2],"pEC50 [1, 4]"
COC(=O)c1[nH]c2ccc(C)cc2c1NC(=O)CN1CCCc2ccccc21 [Compound 658948],6.00,6.25,,
Cc1ccsc1/C=C/C1=Cc2c(sc(NC(=O)CSc3nnc(N)[nH]3)c2C#N)C(C)(C)C1 [Compound 2083967],5.48,5.57,,
COC(=O)c1cc(OC)c(OC)cc1NC(=O)c1cc(-c2ccccc2)nc2ccccc12.Cl [Compound 2965657],4.89,,Infinite,
Cc1ccc(C)c(NC(=S)NC(NC(=O)Cc2cccc3ccccc23)C(Cl)(Cl)Cl)c1 (centres unmarked) [Compound 2831455],5.29,5.16,,
N=C1/C(=C\c2ccc(-c3cc(Cl)cc(Cl)c3)o2)C(=O)N=C2SC=C(c3ccccc3)N12 [Compound 1599902],5.24,5.65,,
COC(=O)c1[nH]c2ccccc2c1NC(=O)CN1CCCc2ccccc21 [Compound 658682],5.80,6.21,,
Cc1ccc2nc(-c3ccc(NC(=O)COC(=O)c4cncc(Br)c4)cc3)sc2c1 [Compound 2365417],5.55,5.39,,
CCC(=O)Nc1c(C#N)c2nc3ccccc3nc2n1C1CCCCC1 [Compound 658936],6.68,,1.669 (Reverse),
Cc1ccc2nsnc2c1NC(=O)c1ccc(-c2cc(Cl)ccc2Cl)o1 [Compound 1334850],5.57,5.86,,
Cc1ccc(/C=c2\sc3nc(-c4ccccc4Br)nn3c2=O)o1 [Compound 1891182],5.16,5.28,,
O=C(Nc1ccc(NC(=O)c2ccc(S(=O)(=O)c3ccccc3)cc2)cc1)c1ccccc1 [Compound 1144109],5.15,5.51,,
Cc1ccc(-c2nn3c(C)nnc3s2)cc1NC(=O)c1ccc(-c2cccc(Cl)c2)o1 [Compound 666410],,5.61,,5.21
CCOC(=O)c1c(NC(=O)c2cc(-c3ccc(Cl)s3)nc3ccccc23)sc(C(N)=O)c1C [Compound 2163411],5.18,5.75,,
O=C(Nc1ccc2nc(-c3ccco3)c(-c3ccco3)nc2c1)N1CCCCCC1 [Compound 2214811],5.33,5.60,,
CCc1cc(=O)oc2cc(C)c3c(C)coc3c12 [Compound 707842],4.82,,Infinite,
Cc1ccc(-c2nc3ncccc3o2)cc1NC(=O)c1sc2ccccc2c1Cl [Compound 1132508],5.35,5.27,,
O=C(Nc1nc(-c2ccco2)c(-c2ccco2)s1)C1CC(=O)N(c2ccc3c(c2)OCCO3)C1 (centres unmarked) [Compound 2998894],5.23,5.52,,
Cc1cc(OCC(=O)Nc2ccc(N3CCN(C(=O)c4ccco4)CC3)cc2)cc(C)c1Cl [Compound 1255242],5.47,5.59,,
Cc1cc(C)cc(OCC(=O)Nc2ccc(N3CCCC3)cc2)c1 [Compound 960705],5.46,5.64,,
CC(=O)Nc1ccc(-c2nnc(SCC(=O)n3c4c(c5ccccc53)CCCC4)n2C)cc1 [Compound 1310712],5.62,5.89,,
O=C(Nc1nnc(-c2ccccc2SCc2ccccc2)s1)Nc1ccccc1F [Compound 1964957],5.19,4.98,,
COc1ccc(-c2nnn(CC(=O)Nc3sc4c(c3C#N)CCCC4)n2)cc1 [Compound 652695],5.31,5.34,,
Cc1c(N2C(=O)c3ccc4c5c(ccc(c35)C2=O)CC4)c(=O)n(-c2ccccc2)n1C [Compound 1356461],5.40,5.64,,
O=C(Nc1ccc(N2CCN(c3ccc(O)cc3)CC2)cc1)Oc1ccccc1 [Compound 1317528],5.44,5.67,,
Cc1cc(C)cc(-n2c(N)c(C(=O)Nc3c(C)n(C)n(-c4ccccc4)c3=O)c3nc4ccccc4nc32)c1 [Compound 1967927],5.57,5.60,,
Cc1ccc(-n2c(N)c(C(=O)Nc3c(C)n(C)n(-c4ccccc4)c3=O)c3nc4ccccc4nc32)cc1 [Compound 1949560],5.26,5.26,,
O=C1NC(=S)N(C2CC2)C(=O)/C1=C/c1ccc2c(c1)CCN2CCCCl [Compound 1993471],3.79,,,
Nc1c(C(=O)Nc2cccc(Cl)c2Cl)sc2nc(-c3cccnc3)ccc12 [Compound 1976060],6.50,,,
N#Cc1c(-c2ccccc2)cc(-c2ccco2)c(C#N)c1N [Compound 625239],5.11,,,

# The next lines start with the values.
"pEC50 [1, 3]",pEC50 [2],EC50 CD11c/CD18 [2],"pEC50 [1, 4]",SMILES
5.17,5.61,,,Cc1ccccc1Cn1c(=O)n(CC2CCC(C(=O)NCCc3ccccc3)CC2)c(=O)c2ccccc21 (centres unmarked) [Compound 12006068]
5.19,5.59,,,COC(=O)c1ccc2c(c1)N(Cc1nc(-c3cccc(C)c3)oc1C)C(=O)C1CCCN21 (centres unmarked) [Compound 5309602]
5.55,5.72,,,O=C1Nc2ccccc2SC(c2ccccc2)C1O (centres unmarked) [Compound 3242458]
5.60,5.60,,,C=CCOC(=O)c1cc(-c2ccc(/C=C3\C(=O)NC(=O)C(C#N)=C3C)o2)ccc1Cl [Compound 5769297]
5.17,5.37,,,CCOc1ccc(NC(=O)c2ccc(CNc3c(NC4CCCCC4)c(=O)c3=O)cc2)cc1 [Compound 11957216]
5.31,5.39,,,Cc1nc(C)c(C(=O)Nc2nc3c(C)cccc3s2)o1 [Compound 3244965]
5.22,5.20,,,Cc1onc(-c2c(Cl)cccc2Cl)c1C(=O)NC(=S)Nc1sc2c(c1C(N)=O)CCC(C)C2 (centres unmarked) [Compound 3466680]
5.21,5.43,,,CC(C)CNC(=O)c1c(N)n(/N=C/c2ccccn2)c2nc3ccccc3nc12 [Compound 9568664]
5.43,5.87,,,Cc1ccc(CCN2CC(C(=O)NCCCN3CCCCCC3)CC2=O)cc1 (centres unmarked) [Compound 3237466]
,5.62,,5.26,O=C(N/N=C/c1ccc(-c2ccc(S(=O)(=O)Nc3ncccn3)cc2)o1)c1cc2ccccc2cc1O [Compound 6892904]
5.89,6.16,,,COc1ccc2cc3cc(C(=O)Nc4ccc5c(c4)OCCO5)oc3nc2c1 [Compound 3241193]
5.18,5.35,,,Cc1ccc(/C=C/C(=O)Nc2ccc([N+](=O)[O-])c(NC(=O)/C=C/c3ccc(C)o3)c2)o1 [Compound 5736971]
4.77,,,,Cc1ccc(C)c(N(CC(=O)N/N=C/c2ccc(-c3ccc([N+](=O)[O-])cc3)o2)S(=O)(=O)c2ccccc2)c1 [Compound 5334671]
5.17,,,,Cc1ccc(-c2noc(C3CCCN(S(=O)(=O)c4ccc(S(=O)(=O)N(C)C)cc4)C3)n2)o1 (centres unmarked) [Compound 3226283]
4.85,,,,CC1CCN(Cc2ccc(NC(=O)C3CCN(c4nnc(-n5cccc5)s4)CC3)cc2)CC1 [Compound 5309189]
4.91,,,,COCCNC(=S)N/N=C/c1ccc(OCc2ccc(C(=O)OC)cc2)cc1 [Compound 6892710]
4.91,,,,COc1ccc2cc(/C=N/NC(=O)c3ccc(CN(c4ccc(C)c(C)c4)S(C)(=O)=O)cc3)c(Cl)nc2c1 [Compound 9564362]
4.86,,,,O=C(Cn1c2ccccc2c(=O)c2ccccc21)N/N=C/c1ccc(N2CCCC2)c([N+](=O)[O-])c1 [Compound 5347156]
5.00,,,,CCOC(=O)N1CCC(NC(=O)c2cccc3c2C(=O)N(c2ccc(OC)cc2)C3)CC1 [Compound 5307705]
